In patent US11718610B2, “Compounds containing benzosultam” (MEDSHINE DISCOVERY INC., priority 2020, dated 2023):
Where two headings read alike, the source gives them in different places. Values belong to the compound of their own block, whether it stands above or below them.

How the values were obtained:
[1] = test system: Calu-6 cells; test: Calu-6 (Kras Q61K) antiproliferative activity experiment (CellTiterGlo); format: cell-based, human; settings: cultured three days
Protocol: Experimental Embodiment 1: Calu-6 (Kras^Q61K) Antiproliferative Activity Experiment
(1) cell culture medium: 88% RPMI-1640, 10% fetal bovine serum, 1% L-glutamine and 1% penicillin-streptomycin;
(2) culture medium, trypsin and DPBS were preheated in a 37° C. water bath;
(3) the original culture medium was removed in the cell culture flask and washed once with 6 mL of PBS;
(4) 3.5 mL of trypsin was added to the cell culture flask, and the cell culture flask was shaken gently, and the trypsin was removed after full contact with the cell, and then the culture flask was placed into a 37° C. incubator containing 5% CO2 for about 1 minute;
(5) the cells were resuspended with 10 mL of cell culture medium, and about 0.6 mL of cell suspension (ViCell XR) was taken out for counting;
(§1) (6) the cell suspension was diluted with culture medium to a cell density required for plating of 2.5×10^4 cells per mL;
(7) 100 μL of PBS was added to each well around the cell plate, and 40 μL of cell suspension was added to the other wells, and placed in a 37° C. incubator containing 5% CO2 for overnight culture.
(§2) (8) The required cell amount and culture medium were taken based on the new T75 culture flask for continued culture.
(§3) (1) the compound to be tested was prepared into […] solution with DMSO;
(2) 9 μL of the compound was taken and added to Echo shallow well plate (Labcyte, #LP-0200), and the shallow well plate was centrifuged at 1000 rpm for 10 seconds;
(3) DPBS at the periphery of the cell plate was sucked out;
(4) the compound was gradient diluted and administrated with Echo, and 10 concentration gradients of each compound were diluted, and 100 nL of the diluent was added to the 384 cell plate separately, and then the cell plate was put back to the incubator and cultured for three days;
(5) then 100 μL of DPBS was added to the periphery of the cell plate.
(1) CTG was added and the plate was read: 20 μL of CellTiterGlo was added to each well of the cell plate, and the cell plate was shaken in the dark for 10 min. and the plate was read on Envision.

[2] = test system: ERK phosphorylation in Calu-6 cells; test: Calu-6 (Kras Q61K) ERK phosphorylation inhibition experiment (HTRF); format: cell-based, human; settings: 1 hour incubation with compound
Protocol: Experimental Embodiment 5: Calu-6 (Kras^Q61K) ERK Phosphorylation Inhibition Experiment
1) the cells were resuscitated and cultured to logarithmic growth phase, digested with trypsin, seeded in 96-well plates with 30000 cells per well, and incubated overnight in an incubator.
2) 1 μL of gradient compound dissolved with DMSO was added to a 96-well plate and placed back into an incubator to incubate for 1 hour.
3) The cell plates were removed out, and the culture medium was poured off, and 50 μL of cell lysate (with 1% blocking peptide) was added to each well.
4) The lysate plate was mixed at 500 rpm and incubated and lysed at room temperature for 30 minutes.
5) The antibody mixture in the kit was prepared at a ratio of 1:1:38.
6) 16 μL of cell lysate was transferred to the HTRF plate per well, then the 4 μL of the configured antibody mixture was added thereto.
7) After incubation overnight, the plate was read with Envision, and the fitted curve was obtained according to the ratio (the ratio of fluorescence intensity of […]) and the EC50 was calculated according to the four-parameter fitting formula Y=Bottom+(Top−Bottom)/(1+10^((Log EC50−X)*HillSlope)) of Graphpad.

[3] = Pharmacokinetics of single intravenous and oral administration in mice; format: in vivo; settings: 50 mg/kg/day, single oral administration, 50 mg/kg/day; for Cmax: read-out: Maximum plasma drug concentration Cmax; for Tmax: read-out: Peak time Tmax
Protocol: Experimental Embodiment 6: Pharmacokinetics Study of Single Intravenous and Oral Administration in Mice and Dogs
This experiment was aimed to study the pharmacokinetics of the test compound in mice and dogs in vivo after a single oral administration of the compound.
After intravenous or oral administration, blood samples were collected and the actual blood collection time was recorded. After the blood sample was collected, the sample was immediately transferred to a labeled centrifuge tube containing K2-EDTA, and then the plasma was taken after centrifugation. The plasma was transferred to a precooled centrifuge tube, quickly frozen in dry ice, and stored in an ultra-low temperature refrigerator at −70±10° C. until LC-MS/MS analysis.
Pharmacokinetic software was used to process the plasma drug concentration data of the compound with […] model. The peak concentration (Cmax) and peak time (Tmax), as well as the end time of quantification, were obtained directly from the plasma drug concentration-time graph. The following pharmacokinetic parameters were calculated by logarithmic linear trapezoidal method: half-life (T1/2), apparent distribution volume (Vdss) and clearance rate (Cl), and the area under the time-plasma concentration curve from 0 to the end time point (AUC0-last).

[4] = test system: A375 cells; test: A375 (BRAF V600E) antiproliferative activity experiment (CellTiter-glo); format: cell-based; settings: Homo sapiens, A-375, 120 h, cultured 5 days
Protocol: Experimental Embodiment 3: A375 (BRAF^V600E) Antiproliferative Activity Experiment
Cell line A375 (purchased from Procell). DMEM culture medium, penicillin/streptomycin antibiotics were purchased from Vicente, and fetal bovine serum was purchased from Biosera. CellTiter-glo (cell viability chemiluminescence detection reagent) reagent was purchased from Promega.
A375 cells were seeded in a white 96 well plate with […] of cell suspension per well containing 2000 of A375 cells. The cell plate was placed in a carbon dioxide incubator and cultured overnight. The compound to be tested was diluted 3-fold to the 9th concentration with a pipette, that is, diluted from 6 mmol to 0.91 μmol, and a double-duplicate experiment was set-up, 78 μmol of culture medium was added to the middle plate, then 2 μmol of gradient dilution compound per well was transferred to the middle plate according to the corresponding position, and 20 μmol per well was mixed and transferred to the cell plate. The concentration of the compound transferred to the cell plate ranged from 30 μmol to 4.57 nmol. The cell plate was placed in a carbon dioxide incubator and cultured for 5 days. Another cell plate was prepared, and the signal value was read as the maximum value (max value in the following equation) on the day of administration to participate in data analysis, 25 μmol of cell viability chemiluminescence detection reagent was added to each well of the cell plate and incubated at room temperature for 10 minutes to stabilize the luminescence signal. A multi-marker analyzer reading was used. After the incubation of the cell plate added with the compound was finished, 25 μmol of cell viability chemiluminescence detection reagent was added to each well of the cell plate and incubated at room temperature for 10 minutes to stabilize the luminescence signal. A multi-marker analyzer reading was used.
(§4) The equation (Sample−Min)/(Max−Min)*100% was used to convert the original data into inhibition rate, and the IC50 value could be obtained by curve fitting with four parameters (obtained by “log (inhibitor) vs. response—variable slope” mode in GraphPad Prism).

[5] = test system: Colo205 cells; test: Colo205 (BRAF V600E) antiproliferative activity experiment (CellTiter-glo); format: cell-based; settings: Homo sapiens, COLO 205, 72 h, cultured 3 days
Protocol: Experimental Embodiment 4: Colo205 (BRAF^V600E) Antiproliferative Activity Experiment
Cell line COLO205 (purchased from Procell), RPMI1640 culture medium, penicillin/streptomycin antibiotics were purchased from Vicente, and fetal bovine serum was purchased from Biosera. CellTiter-glo (cell viability chemiluminescence detection reagent) reagent was purchased from Promega.
COLO205 cells were seeded in a white 96-well plate with […] of cell suspension per well containing 3000 of COLO205 cells. The cell plate was placed in a carbon dioxide incubator and cultured overnight. The compound to be tested was diluted 3-fold to the 9th concentration with a pipette, that is, diluted from […], and a double-duplicate experiment was set-up. 78 μmol of culture medium was added to the middle plate, then 2 μmol of gradient dilution compound per well was transferred to the middle plate according to the corresponding position, and 20 μmol of per well was mixed and transferred to the cell plate. The concentration of the compound transferred to the cell plate ranged from 1 μmol to 0.15 nmol. The cell plate was placed in a carbon dioxide incubator and cultured for 3 days. Another cell plate was prepared, and the signal value was read as the maximum value (max value in the following equation) on the day of administration to participate in data analysis. 25 μmol of cell viability chemiluminescence detection reagent was added to each well of the cell plate and incubated at room temperature for 10 minutes to stabilize the luminescence signal. A multi-marker analyzer reading was used. After the incubation of the cell plate added with the compound was finished, 25 μmol of cell viability chemiluminescence detection reagent was added to each well of the cell plate and incubated at room temperature for 10 minutes to stabilize the luminescence signal. A multi-marker analyzer reading was used.
as §4

[6] = test system: HCT116 cells; test: HCT116 (Kras G13D) antiproliferative activity experiment (CellTiter Glo); format: cell-based; settings: Homo sapiens, HCT-116, 72 h, cultured 3 days
Protocol: Experimental Embodiment 2: HCT116 (Kras^G13D) Antiproliferative Activity Experiment
(1) cell culture medium: 89% Mc′Coy 5A, 10% fetal bovine serum and 1% penicillin-streptomycin;
(2) culture medium and trypsin were preheated in a 37° C. water bath;
(3) the culture medium was removed in the cell culture flask and washed once with 1 mL of trypsin;
(4) 1 mL of trypsin was added to the cell culture flask, and the cell culture flask was shaken gently, and the trypsin was removed after full contact with the cell, and then the culture flask was placed into a 37° C. incubator containing 5% CO2 for about 1 minute;
(5) the cells were resuspended with 2 mL of cell culture medium, and about 0.01 mL of cell suspension was taken out for counting;
as §1
(7) 100 μL of culture medium was added to each well around the cell plate, and 80 μL of cell suspension was added to the other wells, and placed in a 37° C. incubator containing 5% CO2 for overnight culture.
as §2, §3
(2) 9 concentration gradients and 3-fold dilutions were performed on the compounds, that is, a double-duplicate experiment was set from 6 mmol to 2.7 μmol, and 78 μL of culture medium was added to the middle plate, and then 2 μL of gradient diluted compound per well was transferred to the middle plate according to the corresponding position, and after mixing, 20 μL per well was transferred to the cell plate, and the final concentration of the compound transferred to the cell plate was 30 μmol to 13.7 nmol. The cell plate was placed in a carbon dioxide incubator and cultured for another 3 days.
(1) CTG was added and the plate was read: 20 μL of CellTiter Glo was added to each well of the cell plate, and the cell plate was shaken in the dark for 10 min;
(2) plates were read on Victor Nivo.
The equation (Sample-Min)/(Max-Min)*100% was used to convert the original data into inhibition rate, and the IC50 value could be obtained by curve fitting with four parameters (obtained by “log (inhibitor) vs. response—variable slope” mode in GraphPad Prism).

IC50 ([1]; Homo sapiens, Calu-6, 72 h): 210 nM
IC50 ([2]; Homo sapiens, Calu-6, 1 h): 4.39 nM
SMILES: Cc1cccc([C@@H](CO)NC(=O)[C@@H](C)N2Cc3ccc(-c4nc(NC5CCOCC5)ncc4Cl)cc3S2(=O)=O)c1 [Compound 7]

IC50 ([1]; Homo sapiens, Calu-6, 72 h): 222 nM
Cmax ([3]; mouse, plasma, po): 90.5 µM
Tmax ([3]; mouse, plasma): 0.75 h
IC50 ([2]; Homo sapiens, Calu-6, 1 h): 6.92 nM
SMILES: C[C@H](C(=O)N[C@H](CO)c1cc(F)cc(Cl)c1)N1Cc2ccc(-c3nc(NC4CCOCC4)ncc3Cl)cc2S1(=O)=O [Compound 5]

IC50 [1]: 239 nM
Peak time Tmax [3]: 1 h
Cmax [3]: 182 µM
IC50 [2]: 6.36 nM
SMILES: COc1cc(F)cc([C@@H](CO)NC(=O)[C@@H](C)N2Cc3ccc(-c4nc(NC5CCOCC5)ncc4Cl)cc3S2(=O)=O)c1 [Compound 4]

IC50 ([1]; Homo sapiens, Calu-6, 72 h): 508 nM
SMILES: COc1cc(F)cc([C@@H](C)NC(=O)[C@@H](CO)N2Cc3ccc(-c4nc(NC5CCOCC5)ncc4Cl)cc3S2(=O)=O)c1 [Compound 6]

Second part, the compound before the results:

SMILES: C[C@H](C(=O)N[C@H](CO)c1cccc(N(C)C)n1)N1Cc2ccc(-c3nc(NC4CCOCC4)ncc3Cl)cc2S1(=O)=O [Compound 8]
IC50 ([1]; Homo sapiens, Calu-6, 72 h): 313 nM

SMILES: COc1cc(F)cc([C@@H](CO)NC(=O)[C@@H](C)N2Cc3ccc(-c4nc(N[C@@H]5CCOC[C@H]5F)ncc4Cl)cc3S2(=O)=O)c1 [Compound 2]
IC50 ([1]; Homo sapiens, Calu-6, 72 h): 222 nM
IC50 ([2]; Homo sapiens, Calu-6, 1 h): 13.1 nM

SMILES: COc1cc(F)cc([C@@H](CO)NC(=O)CN2Cc3ccc(-c4nc(NC5CCOCC5)ncc4Cl)cc3S2(=O)=O)c1 [Compound 10]
IC50 ([1]; Homo sapiens, Calu-6, 72 h): 253 nM
Cmax ([3]; mouse, plasma, po): 34.6 µM
Tmax ([3]; mouse, plasma): 1 h
IC50 ([2]; Homo sapiens, Calu-6, 1 h): 3.03 nM

SMILES: [2H]C1([2H])CC(Nc2ncc(Br)c(-c3ccc4c(c3)S(=O)(=O)N([C@H](C)C(=O)N[C@H](CO)c3cc(F)cc(OC)c3)C4)n2)CC([2H])([2H])O1 [Compound 12]
IC50 [4]: 16 nM
IC50 [5]: 21 nM
IC50 [6]: 112 nM
IC50 ([2]; Homo sapiens, Calu-6, 1 h): 6.91 nM

SMILES: COc1cc(F)cc([C@@H](CO)NC(=O)[C@@H](C)N2Cc3ccc(-c4nc(N[C@H]5CCOC[C@H]5F)ncc4Br)cc3S2(=O)=O)c1 [Compound 13]
IC50 [4]: 17 nM
IC50 [5]: 21 nM
IC50 [6]: 138 nM
IC50 ([2]; Homo sapiens, Calu-6, 1 h): 7.84 nM
